# Results as given in patent US6207666A, “Method for treating a patient having precancerous lesion with 4-phenylphthalazine derivatives” (Cell Pathways, Inc., priority 1998, dated 2001).
# Tests used:
# HT-29 cells = experiment: Apoptosis and necrosis by fluorescent microscopy (acridine orange and ethidium bromide) in confluent HT-29 cultures; assay type: cell-based, human
# Protocol: Drug stock solutions were made in 100% DMSO then diluted with RPMI media for cell culture testing. All drug solutions were prepared fresh on the day of testing. The cultured cells were obtained at passage #118 and grown in RPMI media supplemented with 5% fetal calf serum, and 2 mM glutamine, 100 U/ml penicillin, 100 U/ml streptomycin, and 0.25 μg/ml amphotericin. The cultures were maintained in a humidified atmosphere of 95% air and 5% CO2 at 37° C. The cultures were passaged at preconfluent densities using a solution of 0.05% trypsin and 0.53 mM EDTA. All experiments involved HT-29 cells between passages 120 and 140. Cells were plated at the following densities to obtain cultures used for the experiments: 500 cells/well for 96 well flat-bottom microtiter plates, 1×10^6 cells per 25 cm^2 flask, or 4×10^6 cells per 75 cm^2 flask. Apoptosis and necrosis were measured using an assay which allowed for the simultaneous measurement of both types of cell death based on morphological characteristics of apoptotic cells (i.e., condensed chromatin) and membrane permeability. Drug preparation and cell culture conditions were the same as above. Confluent cultures were assayed for apoptosis and necrosis by fluorescent microscopy following labeling with acridine orange and ethidium bromide. Floating and attached cells were collected by trypsinization and washed three times in PBS. One ml aliquots of 1×10^6 cells were centrifuged (300 g). The pellet was resuspended in 25 μl media and 1 μl of a dye mixture containing 100 μg/ml acridine orange and 100 μg/ml ethidium bromide prepared in PBS and mixed gently. Ten μl of mixture was placed on a microscope slide and with a 22 mm^2 coverslip and examined under 40 x dry objectives using epilumination and filter combination. An observer blinded to the identity of the treatments scored at least 100 cells per sample. Apoptotic cells were identified by nuclear condensation of chromatin stained by the acridine orange or ethidium bromide. Necrotic cells were identified by uniform labeling of the cell with ethidium bromide. Data was also obtained, under the same procedure above, for the percent of apoptotic cells induced by treatment with varying concentrations of compound No. 17.
# [1] = system: mammary lesions (mouse mammary gland organ culture); experiment: DMBA-induced mammary lesions in mouse mammary gland organ culture; assay type: cell-based, mouse (female BALB/c); conditions: for Glands with Lesions: vehicle 11 of 15; for Percent Incidence (mammary lesions): vehicle 73.33
# Protocol: Compound No. 17 was also tested for its ability to inhibit the incidence of mammary lesions in an organ culture system. This mouse mammary gland organ culture technique has been successfully used by other investigators to study the effects of known cancer-chemopreventative agents such as retinoids and selenium.
# Female BALB/c mice, 28 days old, were treated for nine days with a combination of […] of estradiol and 1 mg of progesterone daily, in order to prime the glands to be responsive to hormones in vitro. The animals were sacrificed and thoracic mammary glands were excised aseptically and incubated for ten days in growth media supplemented with growth-promoting hormones: insulin, prolactin, and hydrocortisone, at 5 μg/ml each and aldosterone at 1 μg/ml. A twenty-four hour treatment of 7,12-dimethylbenz(a)anthracene (DMBA, 2 μg/ml) was carried out between days three and four to induce the formation of mammary lesions. Fully developed glands were deprived of prolactin, hydrocortisone, and aldosterone for 14 days, resulting in the regression of the glands but not the mammary lesions.
# In order to evaluate the effects of Compound No. 17, it was dissolved in DMSO and added to the culture media supplemented for the duration of the culture period. At the end of the culture period, the glands were fixed in 10%. formalin, stained with alum carmine, and mounted on glass slides. The incidence of forming mammary lesions is the ratio of the glands with mammary lesions and glands […]. The incidence of mammary lesions in compound 17 treated glands was compared with that of the untreated glands.
# The extent of the area occupied by the mammary lesions was quantitated by projecting an image of the gland onto a digitation pad. The area covered by the gland was traced on the pad and considered as 100% of the area. The space covered by each of the unregressed structures was also outlined on the digitization pad and quantitated by the computer.
# [2] = system: human colon carcinoma cell line, HT-29; experiment: HT-29 tumor cell growth inhibition, Sulforhodamine B (SRB) protein binding assay, six days continuous exposure; assay type: cell-based; conditions: for SRB Binding (A550): vehicle 0.801 ± 0.137
# Protocol: Compound No. 17, 1-(3-chloroanilino)-4-phenylphthalazine, was assayed for its effect on the human colon carcinoma cell line, HT-29 obtained from ATCC, (Rockville, Md.) to ascertain the degree of growth inhibition. Growth inhibition of this cell line is thought to be indicative of a benefit on precancerous lesions and neoplasms. The cell line and growth assay employed for these experiments is well characterized, and is used by the United States National Cancer Institute in its screening program for new anti-cancer drugs.
# Drug stock solutions were made in 100% DMSO then diluted with RPMI media for cell culture testing. All drug solutions were prepared fresh on the day of testing. The cultured cells were obtained at passage #118 and grown in RPMI media supplemented with 5% fetal calf serum, and 2 mM glutamine, 100 U/ml penicillin, 100 U/ml streptomycin, and 0.25 μg/ml amphotericin. The cultures were maintained in a humidified atmosphere of 95% air and 5% CO2 at 37° C. The cultures were passaged at preconfluent densities using a solution of 0.05% trypsin and 0.53 mM EDTA. All experiments involved HT-29 cells between passages 120 and 140. Cells were plated at the following densities to obtain cultures used for the experiments: 500 cells/well for 96 well flat-bottom microtiter plates, 1×10^6 cells per 25 cm^2 flask, or 4×10^6 cells per 75 cm^2 flask.
# Tumor cell growth inhibition was assessed using the Sulforhodamine B (SRB) protein binding assay. In this assay, tumor cells were plated in 96-well plates and treated with drug-containing media for six days (continuous exposure). For each plate, 6 wells were designated as no treatment controls, six wells as vehicle (0.1% DMSO) controls, and the remaining wells for drug dilutions with six wells per drug concentration. At the end of the exposure period, the cells were fixed and stained with sulforhodamine B, a protein binding dye. The dye was then solubilized, and the optical density of the resulting solution was determined on a 96-well plate reader. The mean dye intensity of the treated wells was then divided by the mean dye intensity in the control wells (6 wells of each) to determine the effect of the drug on the cells. Dye intensity is proportional to the number of cells or amount of protein per well. The resultant "percent inhibition" value then represents the degree of growth inhibition caused by the drug in Table 4 below.
smiles,measurement,setting,value
"Clc1cccc(Nc2nnc(-c3ccccc3)c3ccccc23)c1 [Compound No. 17, 1-(3-Chloroanilino)-4-phenylphthalazine]",% Apoptotic Cells,"HT-29 cells; 1 μM (Table 6), 0 μM gives 4%",12%
same,% Apoptotic Cells,"HT-29 cells; 5 μM (Table 6), 0 μM gives 4%",13%
same,% Apoptotic Cells,"HT-29 cells; 10 μM (Table 6), 0 μM gives 4%",7%
same,% Apoptotic Cells,"HT-29 cells; 25 μM (Table 6), 0 μM gives 4%",8%
same,% Necrotic Cells,"HT-29 cells; 40 μM, HT-29, vehicle 2%, none 5%",6%
same,% Apoptotic Cells,"HT-29 cells; 40 μM, HT-29, vehicle 9%, none 7%",83%
same,% Apoptotic Cells,"HT-29 cells; 50 μM (Table 6), 0 μM gives 4%",78%
same,Glands with Lesions,"[1]; 10 μM, of 13 glands",7
same,Percent Incidence (mammary lesions),[1]; 10 μM,53.85%
same,Glands with Lesions,"[1]; 100 μM, of 15 glands",4
same,Percent Incidence (mammary lesions),[1]; 100 μM,26.67%
same,inhibition at 10 µM,"[1]; Mus musculus, 10 μM, read-out: Percent Inhibition (mammary lesions)",27%
same,inhibition at 100 µM,"[1]; Mus musculus, 100 μM, read-out: Percent Inhibition (mammary lesions)",64%
same,SRB Binding (A550),[2]; 1 μM,0.851 ± 0.059
same,SRB Binding (A550),[2]; 10 μM,0.007 ± 0.003
same,SRB Binding (A550),[2]; 100 μM,0.009 ± 0.010
same,inhibition at 1 µM,"[2]; Homo sapiens, 144 h, 1 μM",0%
same,inhibition at 10 µM,"[2]; Homo sapiens, 144 h, 10 μM",100%
same,inhibition at 100 µM,"[2]; Homo sapiens, 144 h, 100 μM",100%
